Counter-ions that a name gives are not always drawn.
Legend:
Format in all cases: biochemical
[1] = target: T1, recombinant human MAO-A (monoamine oxidase-A) (Homo sapiens, UniProt P21397); experiment: Activity on recombinant human MAO-A, Amplex Red method, 0.5 mM tyramine substrate; details: 0.5 mM tyramine substrate, read-out: Inhibitory Activity (IC50, nM) MAO-A
T1 construct: purchased Sigma-Aldrich
T1 sequence (P21397 1-527): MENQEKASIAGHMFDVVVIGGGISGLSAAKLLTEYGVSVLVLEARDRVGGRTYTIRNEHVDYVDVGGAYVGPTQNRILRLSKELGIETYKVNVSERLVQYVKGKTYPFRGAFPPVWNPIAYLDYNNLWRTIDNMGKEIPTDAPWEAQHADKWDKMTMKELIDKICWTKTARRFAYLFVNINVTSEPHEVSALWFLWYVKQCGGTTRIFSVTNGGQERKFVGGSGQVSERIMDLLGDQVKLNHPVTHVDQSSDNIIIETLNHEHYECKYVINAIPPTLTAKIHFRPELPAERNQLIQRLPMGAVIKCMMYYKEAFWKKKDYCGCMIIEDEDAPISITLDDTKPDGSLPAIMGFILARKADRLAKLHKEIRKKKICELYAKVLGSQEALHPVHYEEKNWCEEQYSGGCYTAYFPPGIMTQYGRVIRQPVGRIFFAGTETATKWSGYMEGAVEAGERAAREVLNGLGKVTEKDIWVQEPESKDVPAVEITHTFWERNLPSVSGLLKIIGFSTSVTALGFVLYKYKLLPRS
Summary of the method: (§1)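 8-point, 1:3 dose-response, four-parameter logistic IC50 from reduction in fluorescence rate versus DMSO control. HRP/Amplex Red detection of H2O2 (ex 544, em 590 nm) after 30 min, 37 °C compound–enzyme preincubation in pH 7.4 phosphate buffer. MAO-A substrate: 0.5 mM tyramine; MAO-B: 1 mM benzylamine.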

[2] = target: T2, recombinant human MAO-B (monoamine oxidase-B) (Homo sapiens, UniProt P27338); experiment: Activity on recombinant human MAO-B, Amplex Red method, 1 mM benzylamine substrate; details: 1 mM benzylamine substrate, read-out: Inhibitory Activity (IC50, nM) MAO-B
T2 construct: purchased Sigma-Aldrich
T2 sequence (P27338 1-520): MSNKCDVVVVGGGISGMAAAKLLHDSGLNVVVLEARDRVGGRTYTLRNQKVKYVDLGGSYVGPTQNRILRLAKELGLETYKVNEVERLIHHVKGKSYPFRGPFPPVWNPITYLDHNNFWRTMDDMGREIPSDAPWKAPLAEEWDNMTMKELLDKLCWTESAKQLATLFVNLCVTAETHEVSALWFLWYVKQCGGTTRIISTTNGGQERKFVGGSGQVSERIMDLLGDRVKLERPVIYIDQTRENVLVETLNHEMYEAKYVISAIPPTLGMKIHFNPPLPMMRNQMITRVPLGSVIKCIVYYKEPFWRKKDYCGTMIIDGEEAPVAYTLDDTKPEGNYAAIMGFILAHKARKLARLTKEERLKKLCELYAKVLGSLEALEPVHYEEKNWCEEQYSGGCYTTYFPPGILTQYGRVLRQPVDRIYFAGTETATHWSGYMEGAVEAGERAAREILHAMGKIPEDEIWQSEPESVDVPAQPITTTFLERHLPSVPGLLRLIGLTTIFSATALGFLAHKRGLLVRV
Summary of the method: as §1

recombinant human VAP-1 = target: T3, recombinant human VAP-1 (Homo sapiens, UniProt Q16853); experiment: Activity on recombinant human VAP-1, Amplex Red HRP-coupled hydrogen peroxide assay, benzylamine substrate; details: recombinant human VAP-1, benzylamine substrate; read-out: Inhibitory Activity (IC50, nM) human VAP-1
T3 construct: purchased R&D systems
T3 sequence (Q16853 1-763): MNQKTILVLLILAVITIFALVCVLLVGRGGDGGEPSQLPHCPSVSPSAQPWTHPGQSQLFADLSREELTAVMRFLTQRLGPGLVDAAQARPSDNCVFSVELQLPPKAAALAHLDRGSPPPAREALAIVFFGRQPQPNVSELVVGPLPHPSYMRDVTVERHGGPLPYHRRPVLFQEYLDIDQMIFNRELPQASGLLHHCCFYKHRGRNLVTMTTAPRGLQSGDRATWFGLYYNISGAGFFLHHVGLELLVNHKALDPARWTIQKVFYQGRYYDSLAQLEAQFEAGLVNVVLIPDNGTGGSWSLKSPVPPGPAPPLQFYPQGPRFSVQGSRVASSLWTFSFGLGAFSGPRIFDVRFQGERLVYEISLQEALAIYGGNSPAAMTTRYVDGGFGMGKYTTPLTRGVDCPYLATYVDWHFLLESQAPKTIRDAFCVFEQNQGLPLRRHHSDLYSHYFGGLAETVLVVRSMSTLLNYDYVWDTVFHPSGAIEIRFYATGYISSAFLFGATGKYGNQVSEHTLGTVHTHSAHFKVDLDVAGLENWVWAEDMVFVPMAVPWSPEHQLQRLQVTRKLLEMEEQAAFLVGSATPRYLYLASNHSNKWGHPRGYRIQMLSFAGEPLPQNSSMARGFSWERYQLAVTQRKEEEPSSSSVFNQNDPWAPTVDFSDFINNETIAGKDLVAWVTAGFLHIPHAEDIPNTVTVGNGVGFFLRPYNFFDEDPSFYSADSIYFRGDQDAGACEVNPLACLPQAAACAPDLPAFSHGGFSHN
Summary of the method: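 Compounds were preincubated with purified enzyme in 50 mM sodium phosphate pH 7.4 at 37 °C for 30 min, then 200 uM Amplex Red, 1 mM benzylamine and 1 U/mL HRP were added. Resorufin fluorescence (ex 544/em 590 nm) was followed over 1-2 h; IC50 came from 4-parameter fits of signal-rate inhibition.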

[3] = target: T4, recombinant human DAO (diamine oxidase) (Homo sapiens, UniProt P19801); experiment: Activity on recombinant human DAO, Amplex Red method, 1 mM putrescine substrate; details: recombinant human DAO, 1 mM putrescine substrate; read-out: Inhibitory Activity (IC50, nM) DAO
T4 construct: purchased R&D systems
T4 sequence (P19801 20-751): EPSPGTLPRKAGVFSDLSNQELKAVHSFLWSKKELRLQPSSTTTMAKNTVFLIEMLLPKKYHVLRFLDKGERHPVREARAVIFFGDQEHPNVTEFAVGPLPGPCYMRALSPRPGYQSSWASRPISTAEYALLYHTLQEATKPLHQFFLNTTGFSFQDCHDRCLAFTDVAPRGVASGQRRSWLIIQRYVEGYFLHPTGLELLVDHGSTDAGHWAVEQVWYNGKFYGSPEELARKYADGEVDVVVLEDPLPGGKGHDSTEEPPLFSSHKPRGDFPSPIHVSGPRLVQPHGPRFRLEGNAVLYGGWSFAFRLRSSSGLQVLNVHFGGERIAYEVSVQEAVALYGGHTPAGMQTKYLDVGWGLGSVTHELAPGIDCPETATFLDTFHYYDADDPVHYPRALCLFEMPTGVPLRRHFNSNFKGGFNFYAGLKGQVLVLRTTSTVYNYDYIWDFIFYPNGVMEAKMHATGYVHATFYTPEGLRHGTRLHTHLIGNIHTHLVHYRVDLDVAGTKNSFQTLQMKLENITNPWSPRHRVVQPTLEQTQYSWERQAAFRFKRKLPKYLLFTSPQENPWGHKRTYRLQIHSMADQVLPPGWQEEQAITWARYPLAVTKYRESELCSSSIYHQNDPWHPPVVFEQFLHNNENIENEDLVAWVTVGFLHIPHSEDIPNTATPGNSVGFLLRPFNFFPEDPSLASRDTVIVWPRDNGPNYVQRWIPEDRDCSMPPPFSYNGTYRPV
Summary of the method: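 Inhibition of recombinant human DAO (diamine oxidase, R&D systems) was assessed with the Amplex Red Hydrogen Peroxide Assay Kit. Hydrogen peroxide produced from 1 mM putrescine was detected through an HRP-coupled reaction that converts Amplex Red into fluorescent resorufin, read at 544 nm excitation and 590 nm emission. IC50 values came from four-parameter logistic fits in GraphPad Prism.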

Row | Structure (SMILES) | IC50 [1] | IC50 [2] | IC50 (recombinant human VAP-1) | IC50 [3]
1 | NC/C(=C\F)Cn1ncn(-c2cccc(/C=C/c3ccsc3)n2)c1=O [Example 237, 2-[(2E)-2-(aminomethyl)-3-fluoroprop-2-en-1-yl]-4-{6-[(E)-2-(thiophen-3-yl)ethenyl]pyridin-2-yl}-2,4-dihydro-3H-1,2,4-triazol-3-one] | 20000 nM | < 100 nM | 2.4 nM | 170 nM
2 | CN(C)c1ccc(/C=C/c2cccc(-n3cnn(C/C(=C/F)CN)c3=O)n2)cc1 [Example 239, 2-[(E)-2-(aminomethyl)-3-fluoro-allyl]-4-[6-[(E)-2-[4-(dimethylamino)phenyl]vinyl]-2-pyridyl]-1,2,4-triazol-3-one hydrochloride] | > 100000 nM | 230 nM | 1.6 nM | 1600 nM
3 | CN1CNc2cc(/C=C/c3cccc(-n4cnn(C/C(=C/F)CN)c4=O)n3)cnc21 [Example 240, 2-[(E)-2-(aminomethyl)-3-fluoro-allyl]-4-[6-[(E)-2-(3-methyl-1,2-dihydroimidazo[4,5-b]pyridin-6-yl)vinyl]-2-pyridyl]-1,2,4-triazol-3-one hydrochloride] | > 100000 nM | > 10000 nM | 1 nM | 4 nM
4 | NC/C(=C\F)Cn1ncn(-c2cccc(/C=C/c3cnc4c(c3)NC(=O)CO4)n2)c1=O [Example 241, 7-[(E)-2-[6-[1-[(E)-2-(aminomethyl)-3-fluoro-allyl]-5-oxo-1,2,4-triazol-4-yl]-2-pyridyl]vinyl]-1H-pyrido[2,3-b][1,4]oxazin-2-one hydrochloride] | > 100000 nM | > 10000 nM | 0.5 nM | 1 nM
5 | NC/C(=C\F)Cn1ncn(-c2cc(C#Cc3ccccn3)ccn2)c1=O [Example 244, 2-[(2E)-2-(aminomethyl)-3-fluoroprop-2-en-1-yl]-4-[4-(pyridin-2-ylethynyl)pyridin-2-yl]-2,4-dihydro-3H-1,2,4-triazol-3-one hydrochloride] | > 100000 nM | 100 nM | 0.8 nM | 12 nM

The next lines start with the values.

Row | IC50 [1] | IC50 [2] | IC50 (recombinant human VAP-1) | IC50 [3] | Structure (SMILES)
6 | 34000 nM | 1600 nM | 0.9 nM | 15 nM | NC/C(=C\F)Cn1ncn(-c2cccc(/C=C/c3ccc(C(F)(F)F)cc3)n2)c1=O [Example 238, 2-[(2E)-2-(aminomethyl)-3-fluoroprop-2-en-1-yl]-4-(6-{(E)-2-[4-(trifluoromethyl)phenyl]ethenyl}pyridin-2-yl)-2,4-dihydro-3H-1,2,4-triazol-3-one Hydrochloride]
7 | > 100000 nM | > 10000 nM | 1.5 nM | 21 nM | NC/C(=C\F)Cn1ncn(-c2cccc(/C=C/c3cnc4[nH]c(=O)oc4c3)n2)c1=O [Example 242, 6-[(E)-2-[6-[1-[(E)-2-(aminomethyl)-3-fluoro-allyl]-5-oxo-1,2,4-triazol-4-yl]-2-pyridyl]vinyl]-3H-oxazolo[4,5-b]pyridin-2-one hydrochloride]
8 | > 100000 nM | 940 nM | 0.6 nM | 18 nM | NC/C(=C\F)Cn1ncn(-c2cccc(C#Cc3cccnc3)c2)c1=O [Example 243, 2-[(2E)-2-(aminomethyl)-3-fluoroprop-2-en-1-yl]-4-[3-(pyridin-3-ylethynyl)phenyl]-2,4-dihydro-3H-1,2,4-triazol-3-one hydrochloride]
9 | > 100000 nM | 300 nM | 0.9 nM | 11 nM | NC/C(=C\F)Cn1ncn(-c2cc(C#Cc3cccnc3)ccn2)c1=O [Example 245, 2-[(2E)-2-(aminomethyl)-3-fluoroprop-2-en-1-yl]-4-[4-(pyridin-3-ylethynyl)pyridin-2-yl]-2,4-dihydro-3H-1,2,4-triazol-3-one hydrochloride]
10 | > 100000 nM | 130 nM | 0.5 nM | 12 nM | NC/C(=C\F)Cn1ncn(-c2cc(C#Cc3ccncc3)ccn2)c1=O [Example 246, 2-[(2E)-2-(aminomethyl)-3-fluoroprop-2-en-1-yl]-4-[4-(pyridin-4-ylethynyl)pyridin-2-yl]-2,4-dihydro-3H-1,2,4-triazol-3-one hydrochloride]
11 | > 100000 nM | 4300 nM | 0.3 nM | 14 nM | COc1ccc(C#Cc2cccc(-n3cnn(C/C(=C/F)CN)c3=O)n2)cn1 [Example 247, 2-[(2E)-2-(aminomethyl)-3-fluoroprop-2-en-1-yl]-4-{6-[(6-methoxypyridin-3-yl)ethynyl]pyridin-2-yl}-2,4-dihydro-3H-1,2,4-triazol-3-one]
12 | > 100000 nM | > 10000 nM | 0.5 nM | 36 nM | CN(C)c1ccc(C#Cc2cccc(-n3cnn(C/C(=C/F)CN)c3=O)n2)cn1 [Example 248, 2-[(E)-2-(aminomethyl)-3-fluoro-allyl]-4-[6-[2-[6-(dimethylamino)-3-pyridyl]ethynyl]-2-pyridyl]-1,2,4-triazol-3-one]

Reference: patent publication US11492335B2, “Aryl or heteroaryl triazolone derivatives or salts thereof, or pharmaceutical compositions comprising the same” (YUHAN CORPORATION, priority 2018, dated 2022)
